{
  "source": "ChEMBL document CHEMBL3593216",
  "about": "“Discovery of antitubercular 2,4-diphenyl-1H-imidazoles from chemical library repositioning and rational design” (2015)",
  "key": {"[1]": {"test_system": "Mycobacterium tuberculosis", "experiment": "Antitubercular activity against recombinant Mycobacterium tuberculosis H37Rv expressing Vibrio harveyii luciferase gene with acetamidase promoter assessed as prevention of metabolic recovery incubated for 10 days in anaerobic environment followed by 28 hrs recovery in aerobic environment by low-oxygen recovery assay", "assay_type": "functional"}, "[2]": {"test_system": "Mycobacterium tuberculosis", "experiment": "Antitubercular activity against Mycobacterium tuberculosis H37Rv ATCC 27294 incubated up to 7 days measured on day 7 by microplate Alamar Blue assay", "assay_type": "functional", "conditions": "H37Rv ATCC 27294, 168 h"}},
  "data": [
    {"compound": "Fc1cc(-c2nc(-c3cccc(C(F)(F)F)c3)c[nH]2)cc(C(F)(F)F)c1", "values": [
      {"measurement": "MIC90", "setting": "[1]", "value": 17.6, "unit": "µM"},
      {"measurement": "MIC90", "setting": "[2]", "value": 6, "unit": "µM"}
    ]},
    {"compound": "Clc1cccc(-c2c[nH]c(-c3ccccc3)n2)c1", "values": [
      {"measurement": "MIC90", "setting": "[2]", "value": 60.3, "unit": "µM"}
    ]},
    {"compound": "FC(F)(F)c1cccc(-c2c[nH]c(-c3ccc(Cl)cc3)n2)c1", "values": [
      {"measurement": "MIC90", "setting": "[2]", "value": 29.8, "unit": "µM"}
    ]},
    {"compound": "FC(F)(F)c1cccc(-c2c[nH]c(-c3cc(C(F)(F)F)cc(C(F)(F)F)c3)n2)c1", "values": [
      {"measurement": "MIC90", "setting": "[1]", "value": 11.3, "unit": "µM"},
      {"measurement": "MIC90", "setting": "[2]", "value": 7.7, "unit": "µM"}
    ]},
    {"compound": "Clc1cccc(-c2nc(-c3ccccc3)c[nH]2)c1", "values": [
      {"measurement": "MIC90", "setting": "[2]", "value": 60.4, "unit": "µM"}
    ]},
    {"compound": "CO[C@H]1/C=C/O[C@@]2(C)Oc3c(C)c(O)c4c(O)c(c(/C=N/N5CCN(C)CC5)c(O)c4c3C2=O)NC(=O)/C(C)=C\\C=C\\[C@H](C)[C@H](O)[C@@H](C)[C@@H](O)[C@@H](C)[C@H](OC(C)=O)[C@@H]1C", "note": "[RIFAMPIN]", "values": [
      {"measurement": "MIC90", "setting": "[2]", "value": 0.05, "unit": "µM"}
    ]},
    {"compound": "COc1cccc(-c2nc(-c3ccccc3)c[nH]2)c1OC", "values": [
      {"measurement": "MIC90", "setting": "[2]", "value": 55.2, "unit": "µM"}
    ]},
    {"compound": "FC(F)(F)c1ccc(-c2c[nH]c(-c3ccccc3)n2)cc1", "values": [
      {"measurement": "MIC90", "setting": "[2]", "value": "> 128", "unit": "µM"}
    ]},
    {"compound": "Oc1ccc(-c2nc(-c3ccccc3)c[nH]2)cc1", "values": [
      {"measurement": "MIC90", "setting": "[2]", "value": "> 128", "unit": "µM"}
    ]},
    {"compound": "COc1ccc(-c2csc(Nc3ccc(C)cc3)n2)cc1", "values": [
      {"measurement": "MIC90", "setting": "[2]", "value": 15.6, "unit": "µM"}
    ]},
    {"compound": "COc1cccc(-c2c[nH]c(-c3ccccc3)n2)c1", "values": [
      {"measurement": "MIC90", "setting": "[2]", "value": 88.4, "unit": "µM"}
    ]},
    {"compound": "Cc1[nH]c(-c2cccc(C(F)(F)F)c2)nc1-c1cccc(C(F)(F)F)c1", "values": [
      {"measurement": "MIC90", "setting": "[2]", "value": 14, "unit": "µM"}
    ]},
    {"compound": "FC(F)(F)c1ccc(-c2nc(-c3ccccc3)c[nH]2)cc1", "values": [
      {"measurement": "MIC90", "setting": "[2]", "value": 48.9, "unit": "µM"}
    ]},
    {"compound": "COc1cccc(-c2nc(-c3ccccc3)c[nH]2)c1", "values": [
      {"measurement": "MIC90", "setting": "[2]", "value": 73.7, "unit": "µM"}
    ]},
    {"compound": "Clc1ccc(-c2c[nH]c(-c3ccccc3)n2)cc1", "values": [
      {"measurement": "MIC90", "setting": "[2]", "value": 59.5, "unit": "µM"}
    ]},
    {"compound": "O=[N+]([O-])c1ccc(-c2c[nH]c(-c3ccccc3)n2)cc1", "values": [
      {"measurement": "MIC90", "setting": "[2]", "value": "> 128", "unit": "µM"}
    ]},
    {"compound": "COc1cc(-c2nc(-c3cccc(C(F)(F)F)c3)c[nH]2)cc(C(F)(F)F)c1", "values": [
      {"measurement": "MIC90", "setting": "[1]", "value": 63.7, "unit": "µM"},
      {"measurement": "MIC90", "setting": "[2]", "value": 7.3, "unit": "µM"}
    ]},
    {"compound": "FC(F)(F)c1cccc(-c2c[nH]c(-c3ccccc3)n2)c1", "values": [
      {"measurement": "MIC90", "setting": "[2]", "value": 37, "unit": "µM"}
    ]},
    {"compound": "c1ccc(-c2c[nH]c(C3CCCCC3)n2)cc1", "values": [
      {"measurement": "MIC90", "setting": "[2]", "value": 125, "unit": "µM"}
    ]},
    {"compound": "Clc1ccc(-c2nc(-c3ccccc3)c[nH]2)cc1", "values": [
      {"measurement": "MIC90", "setting": "[2]", "value": 59.8, "unit": "µM"}
    ]},
    {"compound": "COc1ccc(-c2csc(Nc3cc(Cl)cc(Cl)c3)n2)cc1", "values": [
      {"measurement": "MIC90", "setting": "[2]", "value": 13, "unit": "µM"}
    ]},
    {"compound": "NNC(=O)c1ccncc1", "note": "[ISONIAZID]", "values": [
      {"measurement": "MIC90", "setting": "[2]", "value": 0.1, "unit": "µM"}
    ]},
    {"compound": "c1ccc(-c2c[nH]c(-c3ccncc3)n2)cc1", "values": [
      {"measurement": "MIC90", "setting": "[2]", "value": "> 128", "unit": "µM"}
    ]},
    {"compound": "COc1ccc(-c2c[nH]c(-c3ccccc3)n2)cc1", "values": [
      {"measurement": "MIC90", "setting": "[2]", "value": 82.4, "unit": "µM"}
    ]},
    {"compound": "COc1ccccc1-c1nc(-c2ccccc2)c[nH]1", "values": [
      {"measurement": "MIC90", "setting": "[2]", "value": "> 128", "unit": "µM"}
    ]},
    {"compound": "FC(F)(F)Oc1cccc(-c2nc(-c3ccccc3)c[nH]2)c1", "values": [
      {"measurement": "MIC90", "setting": "[2]", "value": 35.5, "unit": "µM"}
    ]},
    {"compound": "Cc1ccc(-c2nc(-c3ccccc3)c[nH]2)cc1", "values": [
      {"measurement": "MIC90", "setting": "[2]", "value": 124, "unit": "µM"}
    ]},
    {"compound": "FC(F)(F)c1cccc(-c2nc(-c3ccccc3)c[nH]2)c1", "values": [
      {"measurement": "MIC90", "setting": "[2]", "value": 30.6, "unit": "µM"}
    ]},
    {"compound": "c1ccc(-c2c[nH]c(-c3ccccc3)n2)cc1", "values": [
      {"measurement": "MIC90", "setting": "[2]", "value": 128, "unit": "µM"}
    ]},
    {"compound": "FC(F)(F)c1cccc(-c2c[nH]c(-c3cccc(C(F)(F)F)c3)n2)c1", "values": [
      {"measurement": "MIC90", "setting": "[1]", "value": 25.4, "unit": "µM"},
      {"measurement": "MIC90", "setting": "[2]", "value": 1.7, "unit": "µM"}
    ]},
    {"compound": "COc1ccc(-c2nc(-c3ccccc3)c[nH]2)cc1", "values": [
      {"measurement": "MIC90", "setting": "[2]", "value": 119, "unit": "µM"}
    ]},
    {"compound": "Cn1cc(-c2cccc(C(F)(F)F)c2)nc1-c1cccc(C(F)(F)F)c1", "values": [
      {"measurement": "MIC90", "setting": "[1]", "value": 50.7, "unit": "µM"},
      {"measurement": "MIC90", "setting": "[2]", "value": 7.9, "unit": "µM"}
    ]},
    {"compound": "O=[N+]([O-])c1cccc(-c2nc(-c3ccccc3)c[nH]2)c1", "values": [
      {"measurement": "MIC90", "setting": "[2]", "value": 60.6, "unit": "µM"}
    ]},
    {"compound": "c1ccc(-c2c[nH]c(-c3ccsc3)n2)cc1", "values": [
      {"measurement": "MIC90", "setting": "[2]", "value": 107, "unit": "µM"}
    ]}
  ]
}
